Legend:
[1] = test system: U87MG xenografts (tumor glucose metabolism); assay: FDG microPET/CT tumor uptake in U87MG xenografts
[2] = test system: Src family kinases / Focal Adhesion Kinase phosphorylation in U87MG cells; assay: Western blot of phospho-Src, phospho-FAK and β3 in U87MG cell lysates; assay type: cell-based, human; conditions: 100 nM
[3] = test system: U87MG xenografts; assay: Histology and immunohistochemistry of frozen tumor sections; assay type: in vivo, SCID mice; conditions: 95 mg/kg, 72 h
[4] = test system: U87MG xenografts (αVβ3 integrin activity); assay: microPET/CT tumor uptake of [^64Cu]DOTA–c; assay type: in vivo, SCID mice; conditions: 72 h; for reduction of [^64Cu]DOTA–c(RGDfK) tumor uptake: vs vehicle controls, PET 15 h post injection
[5] = test system: αVβ3 integrin on U87MG cells; assay: Flow cytometry of surface αVβ3 integrin expression; assay type: cell-based, human; conditions: 100 nM, 6 or 24 h, FACS, LM609 antibody, samples in duplicate
[6] = test system: αVβ3 focal adhesions in U87MG cells; assay: Immunofluorescence of dimerized αVβ3; assay type: cell-based, human; conditions: 100 nM, 3 h, U87MG on fibronectin
[7] = test system: U87MG xenografts; assay: U87MG xenograft tumor growth; assay type: in vivo, SCID mice

Row | SMILES | tumor FDG uptake in vehicle controls ([1]; U87MG xenograft, 7–10 MBq FDG, 1 h uptake, mean ± SD) | total β3 levels ([2]; 6 or 24 h) | FAK phosphorylation at tyrosine 397 ([2]; 6 h) | FAK phosphorylation at tyrosine 861 ([2]; 6 h) | SFK phosphorylation at tyrosine 416 ([2]; 6 h) | tumor viability and vascularization (H&E, CD31) [3] | phospho-FAK (Y861) staining in tumors ([3]; immunohistochemistry, relative to control) | αVβ3 staining in tumors ([3]; treated vs control, LM609 antibody) | reduction of [^64Cu]DOTA–c(RGDfK) tumor uptake ([4]; 72 mg/kg daily gavage) | reduction of [^64Cu]DOTA–c(RGDfK) tumor uptake ([4]; 95 mg/kg daily gavage) | tracer distribution and organ uptake, treated vs untreated animals ([4]; 95 mg/kg, dynamic PET, normal organs, except U87 xenografts) | total dimerized cell surface αVβ3 protein level [5] | change in tumor FDG uptake ([1]; 95 mg/kg, 72 h, p=0.1704) | αVβ3 clustering in focal adhesion complexes [6] | difference in tumor size between control and treated animals ([7]; after 10 consecutive days of treatment) | difference in tumor size at the time of PET imaging ([7]; day 3, p=0.1272)
1 | OC[C@H]1OC(O)[C@H]([18F])[C@@H](O)[C@@H]1O (stereo partly shown) [FDG, [^18F]fluorodeoxyglucose] | 10.39±1.04 % ID/g |  |  |  |  |  |  |  |  |  |  |  |  |  |  | 
2 | Cc1nc(Nc2ncc(C(=O)Nc3c(C)cccc3Cl)s2)cc(N2CCN(CCO)CC2)n1 [dasatinib] |  | nor did total β3 levels decrease | decrease | target inhibition | target inhibition | remained viable and vascularized | reduced | no difference | 39% | 59% | virtually identical | did not change relative to control | no significant change | no longer clustered in focal adhesion complexes | six-fold | no appreciable difference

Source: article PMC2749524 (Cancer research, 2009)
